Measured values taken from publication PMC7351949, “Molecular basis for the distinct functions of redox-active and FeS-transfering glutaredoxins” (Nature Communications, 2020).

Key:
Grx5 = target: T1, Grx5 (Homo sapiens, UniProt Q86SX6); assay: UV/Vis spectroscopy of reconstituted holo-complex; format: binding; details: bridges a dimer, co-ligated by two GSH; reconstituted with GSH, cysteine, iron and IscS, pH 8.0
T1 construct: gene GLRX5; transit peptide removed (forward primer encodes M-GSGAG...), pET15b, His-tagged, recombinant from E. coli, IMAC purified; dimeric as Fe2S2 holo-complex
T1 sequence (Q86SX6 33-157): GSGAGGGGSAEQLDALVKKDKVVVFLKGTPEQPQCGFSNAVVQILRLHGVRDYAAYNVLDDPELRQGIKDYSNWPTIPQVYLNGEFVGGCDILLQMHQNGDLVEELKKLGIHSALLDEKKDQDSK

Grx2 = target: T2, Grx2 (Homo sapiens, UniProt Q9NS18); assay: UV/Vis spectroscopy of reconstituted holo-complex; format: binding; details: bridges a dimer, co-ligated by two GSH; reconstituted with GSH, cysteine, iron and IscS, pH 8.0
T2 construct: gene GLRX2; Grx2c, His-tagged, recombinant from E. coli, IMAC purified; monomeric apo form, dimeric as Fe2S2 holo-complex
T2 sequence (Q9NS18 1-165 isoform Q9NS18-2): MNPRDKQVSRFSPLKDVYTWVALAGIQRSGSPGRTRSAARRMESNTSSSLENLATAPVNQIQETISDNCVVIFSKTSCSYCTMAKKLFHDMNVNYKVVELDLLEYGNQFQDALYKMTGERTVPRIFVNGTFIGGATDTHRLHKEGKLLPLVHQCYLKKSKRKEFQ

AtGrxC1 = target: T3, AtGrxC1 (Arabidopsis thaliana, UniProt Q8L8T2); assay: HED assay, NADPH / glutathione reductase coupled; format: biochemical; details: read-out: HED assay / Km app (HED) / μM; 1 mM GSH, 200 µM NADPH, yeast glutathione reductase, 100 mM potassium phosphate pH 7.8; actual substrate is the mixed disulfide βME-SG formed from HED and GSH
T3 construct: gene GRXC1; His-tagged, recombinant, IMAC purified
Description: HED assay, NADPH / glutathione reductase coupled on AtGrxC1

T3 sequence (Q8L8T2 whole entry): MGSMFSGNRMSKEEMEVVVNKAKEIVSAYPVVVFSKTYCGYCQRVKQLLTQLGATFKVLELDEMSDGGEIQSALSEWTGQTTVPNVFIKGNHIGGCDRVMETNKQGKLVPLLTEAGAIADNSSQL

Compound | UV/Vis spectroscopy of reconstituted holo-complex (Grx5) | UV/Vis spectroscopy of reconstituted holo-complex (Grx2) | Km (AtGrxC1) [µM]
[S]1[Fe][S][Fe]1 [Fe2S2 cluster] | The UV/VIS spectra (Fig. 4a) demonstrate the ability of all proteins to form FeS | The UV/VIS spectra (Fig. 4a) demonstrate the ability of all proteins to form FeS | 
OCCSSCCO [HED] |  |  | 773 ± 164
